Measured values reported in patent US20160375073A1, “COMPOSITION FOR TREATMENT OR PREVENTION OF OBESITY, CONTAINING WATER EXTRACTS OF FOMITELLA FRAXINEA” (POSTECH ACADEMY-INDUSTRY FOUNDATION, priority 2011, published 2016).

System: lipid absorption in the digestive tract
Experiment: Amount of lipid absorption from the digestive tract into blood (14C-triolein, plasma radioactivity)
Type: in vivo, mouse
Conditions: male Balb/c mice, oral 14C-triolein, plasma 6 hours after administration, relative to untreated control = 1; FIG. 3
Method: Triolein (Amersham, 100 μCi/mL) radiolabeled with ^14C was mixed with 1% (w/v) sodium carboxylmethyl cellulose (CMC-Na) and 1% (v/v) Tween 80, and then 0.1 mL of the mixture was forcibly administered into each mouse through an oral zonde so that 1 μCi could be delivered to each mouse. Here, the mouse in the control group (an 8-week old male Balb/c with body weight of 25 g) was treated with 400 μg of Orlistat (20 mg/kg), which is used as an obesity treatment, and the mouse in the experimental group (an 8-week old male Balb/c with body weight of 25 g) was treated with 0.5 mL of the water extract (50 mg/mL) of Fomitella […] prepared in the Example after concentrating it into 0.1 mL. Six hours after the administration, blood samples were collected from the mice, and plasma was obtained by centrifuging the blood at […] at the rate of 14000 rpm, and the radioactive dose was measured by a liquid scintillator (Beta counter, Beckman LS1801). The control group was not treated with anything. The amount of lipid absorption was determined as a relative value by dividing the radioactive dose of each group into the radioactive dose of the control group, in which the radioactive dose of the control group was set at '1'. […] In particular, the result on the control group in FIG. 3 was obtained from the blood sample of a mouse not treated with any lipid absorption inhibitor.

## CCCCCCCCCCC[C@@H](C[C@@H]1OC(=O)[C@H]1CCCCCC)OC(=O)[C@H](CC(C)C)NC=O [Orlistat, orlistat]
  inhibitory effect upon lipid absorption: significant inhibitory effect upon lipid absorption
